Results as given in paper PMC12463120, “Phenylalanine‐Based DNA‐Encoded Chemical Libraries for the Discovery of Potent and Selective Small Organic Ligands Against Markers of Cancer and Immune Cells” (Advanced Science, 2025).

Columns and labels:
[1] = test system: various unrelated proteins, including TAAs and serological proteins; assay: ELISA against multiple proteins (specificity); assay type: binding
Procedure: 2.13 ACP3 colorimetric enzymatic assay
Grenier 384 transparent, flat-bottom well plates were used. Each test compound was measured in triplicate. 16 µL of a solution of the compound (3µM, 5% DMSO in PBS for small molecules or PBS only for DNA-conjugates, pH 7.4) was loaded into the first well row. A serial 1:2 (on DNA) or 1:3 (off DNA) dilution in DMSO/PBS (5/95, off DNA) or only PBS (on DNA) was performed in a total volume per well of 8 µL. Human recombinant ACP3 (16 µL solution, 2.5 nM in PBS, pH 7.4) was added to each well.
After 10 min of incubation, 16 µL of a solution of para-nitrophenyl phosphate (pNPP, substrate, 5 mM in PBS, pH 7.4) was added. The plate was left to develop in the dark for 16 hours. Enzymatic reaction on the substrate (phosphate group removal by ACP3) was assessed by measuring absorption at 405 vs 620 nm on a Spectra Max Paradigm multimode plate reader ([…]).
2.14 Surface plasmon resonance (SPR)
SPR measurements were performed on a Biacore X100. […]
The protein (100 μL/well, 170 nM) was incubated for 2 h at 4 °C on a StreptaWell plate (transparent 96 - well plate, Roche #11645692001). […] The absorbance was measured at 450 nm (reference level, 620–650 nm) with a Spark multimode microplate reader (Tecan Life Sciences). […]

NKG2D-Fc = biological target: T1, NKG2D-Fc (Homo sapiens, UniProt P26718); assay: ELISA affinity against NKG2D-Fc; assay type: binding; conditions: FITC derivatives; read-out: dissociation constant (KD) against NKG2D-Fc by ELISA
T1 construct: the extracellular domain of NKG2D was fused with an IgG Fc fragment; made in house; host or cells: CHO cells
T1 sequence (P26718 73-216 limits assumed): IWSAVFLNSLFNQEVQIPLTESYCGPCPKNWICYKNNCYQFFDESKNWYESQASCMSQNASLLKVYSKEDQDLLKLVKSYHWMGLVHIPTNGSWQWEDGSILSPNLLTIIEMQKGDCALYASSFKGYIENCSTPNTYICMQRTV
Procedure: Selection results were decoded with C++^[ [61] ^] and visualized using MATLAB R2019b (MathWorks). EFs were calculated by dividing the DNA sequence counts for each hit compound by the average DNA sequence count from the corresponding DEL screening. Additionally, Z‐score values were calculated following methods previously published,^[ [60] ^] as present in Supporting Information. Hit compounds with high EFs in the target protein selections and low EFs in the negative controls (anti‐target and streptavidin selections) were selected for hit validation activities. All compounds were synthesized using either solid‐phase peptide synthesis or solution‐phase methodologies. Affinities of fluorescein‐bearing hits were determined by FP or ELISA measurements. […] ACP3 colorimetric inhibition assay was performed with serially diluted compounds at a fixed concentration (5 mM in PBS) of para‐nitrophenyl phosphate as substrate. Binding kinetics were assessed on a Biacore X100 instrument with the target protein immobilized on a CM5 chip at 4′000 RUs. Cell binding of fluorescent ligands was evaluated using flow cytometry against antigen‐positive and antigen‐negative (wild‐type) cancer cells. in vitro tissue uptake of ^177Lu‐labelled DOTAGA PSMA‐radioligands was measured via autoradiography. […]
Grenier 384 transparent, flat-bottom well plates were used. Each test compound was measured in triplicate. […]

With `CC(C)Oc1ccc(-c2cccc(C[C@H](NC(=O)c3ccccc3-c3ccc(C(F)(F)F)cc3)C(=O)N[C@@H](CCCCNC(=S)Nc3ccc4c(c3)C(=O)OC43c4ccc(O)cc4Oc4cc(O)ccc43)C(=O)O)c2)c(F)c1` [compound 30] the “selectivity by ELISA against multiple proteins” value [1] was “high selectivity over various unrelated proteins” and the Kd (NKG2D-Fc) was 133 nM.
